Measured values from article PMC5218480 (PLoS ONE, 2017).

Tested on: MV-4-11 cells
Test: Gene expression microarray analysis (Affymetrix PrimeView) and GSEA
Assay type: cell-based, human
Parameters: RFU PODN (11730768_x_at) / Fold change /veh PODN (11730768_x_at) / RFU LINC00158 (11744669_a_at) / Fold change /veh LINC00158 (11744669_a_at) / RFU DUSP10 (11751237_a_at) / Fold change /veh DUSP10 (11751237_a_at) / RFU ID3 (11757404_x_at) / Fold change /veh ID3 (11757404_x_at) / RFU PLEKHG5 (11737974_s_at) / Fold change /veh PLEKHG5 (11737974_s_at) / RFU LRRC4B (11730491_at) / Fold change /veh LRRC4B (11730491_at) / RFU GIMAP4 (11747438_a_at) / Fold change /veh GIMAP4 (11747438_a_at) / RFU KRT8 (11758183_x_at) / Fold change /veh KRT8 (11758183_x_at) / RFU CNN1 (11734310_a_at) / Fold change /veh CNN1 (11734310_a_at) / RFU VPS37D (11726825_at) / Fold change /veh VPS37D (11726825_at) / RFU C10orf10 (11716522_x_at) / Fold change /veh C10orf10 (11716522_x_at) / RFU KIR2DL2 /// KIR2DL4 /// KIR2DL5A /// KIR2DL5B /// KIR2DS1 /// KIR2DS2 /// KIR2DS3 /// KIR2DS4 /// KIR3DL3 /// KIR3DL3 /// KIR3DS1 (11738374_at) / Fold change /veh KIR2DL2 /// KIR2DL4 /// KIR2DL5A /// KIR2DL5B /// KIR2DS1 /// KIR2DS2 /// KIR2DS3 /// KIR2DS4 /// KIR3DL3 /// KIR3DL3 /// KIR3DS1 (11738374_at) / RFU C1QL1 (11718748_at) / Fold change /veh C1QL1 (11718748_at) / RFU TMPRSS4 (11747572_a_at) / Fold change /veh TMPRSS4 (11747572_a_at) / RFU HAMP (11756126_x_at) / Fold change /veh HAMP (11756126_x_at) / RFU RNFT2 (11725882_a_at) / Fold change /veh RNFT2 (11725882_a_at) / RFU NR4A2 (11747474_a_at) / Fold change /veh NR4A2 (11747474_a_at) / RFU ABCC12 (11746883_a_at) / Fold change /veh ABCC12 (11746883_a_at) / RFU TMEM136 (11760407_x_at) / Fold change /veh TMEM136 (11760407_x_at) / RFU CLDN22 /// WWC2 (11732394_at) / Fold change /veh CLDN22 /// WWC2 (11732394_at) / RFU HLA-DPB1 (11760878_x_at) / Fold change /veh HLA-DPB1 (11760878_x_at) / RFU SPINT1 (11716480_a_at) / Fold change /veh SPINT1 (11716480_a_at) / RFU GAP43 (11754022_s_at) / Fold change /veh GAP43 (11754022_s_at) / RFU A4GNT (11735810_at) / Fold change /veh A4GNT (11735810_at) / RFU PRB3 (11715151_x_at) / Fold change /veh PRB3 (11715151_x_at) / RFU TUBB4B (11761932_at) / Fold change /veh TUBB4B (11761932_at) / RFU CAPN14 (11732068_a_at) / Fold change /veh CAPN14 (11732068_a_at) / RFU TMCC2 (11721928_a_at) / Fold change /veh TMCC2 (11721928_a_at) / RFU IRGQ (11745062_a_at) / Fold change /veh IRGQ (11745062_a_at) / RFU FAM174B (11720279_a_at) / Fold change /veh FAM174B (11720279_a_at) / RFU TMPRSS4 (11748680_a_at) / Fold change /veh TMPRSS4 (11748680_a_at) / RFU FAM212B (11763350_a_at) / Fold change /veh FAM212B (11763350_a_at) / RFU PLEKHG5 (11743358_a_at) / Fold change /veh PLEKHG5 (11743358_a_at) / RFU ZSCAN30 (11745921_a_at) / Fold change /veh ZSCAN30 (11745921_a_at) / RFU CMKLR1 (11741424_a_at) / Fold change /veh CMKLR1 (11741424_a_at) / RFU LOC101060620 /// MAPK8IP1 (11723275_at) / Fold change /veh LOC101060620 /// MAPK8IP1 (11723275_at) / RFU SPTSSB (11747773_x_at) / Fold change /veh SPTSSB (11747773_x_at) / RFU PRSS12 (11739890_at) / Fold change /veh PRSS12 (11739890_at) / RFU BIN1 (11741810_x_at) / Fold change /veh BIN1 (11741810_x_at) / RFU WNT11 (11732464_a_at) / Fold change /veh WNT11 (11732464_a_at) / RFU C10orf10 (11716521_a_at) / Fold change /veh C10orf10 (11716521_a_at) / RFU C5orf56 (11738089_at) / Fold change /veh C5orf56 (11738089_at) / RFU CYB561 (11721691_x_at) / Fold change /veh CYB561 (11721691_x_at) / RFU ANKRD19P (11752326_a_at) / Fold change /veh ANKRD19P (11752326_a_at) / RFU OR2T12 /// OR2T33 /// OR2T8 (11738714_s_at) / Fold change /veh OR2T12 /// OR2T33 /// OR2T8 (11738714_s_at) / RFU VCAN (11748164_a_at) / Fold change /veh VCAN (11748164_a_at) / RFU JSRP1 (11732532_at) / Fold change /veh JSRP1 (11732532_at) / RFU KRTAP10-11 (11738290_x_at) / Fold change /veh KRTAP10-11 (11738290_x_at) / RFU MYO3A (11730013_a_at) / Fold change /veh MYO3A (11730013_a_at) / RFU EBF3 (11725865_a_at) / Fold change /veh EBF3 (11725865_a_at) / RFU CAMK2N1 (11719241_x_at) / Fold change /veh CAMK2N1 (11719241_x_at) / RFU C5orf56 (11738088_a_at) / Fold change /veh C5orf56 (11738088_a_at) / RFU OLFML3 (11715873_a_at) / Fold change /veh OLFML3 (11715873_a_at) / RFU LOC100653217 /// NTM (11731650_a_at) / Fold change /veh LOC100653217 /// NTM (11731650_a_at) / RFU MAPK11 (11762145_a_at) / Fold change /veh MAPK11 (11762145_a_at) / RFU FIZ1 (11724087_x_at) / Fold change /veh FIZ1 (11724087_x_at) / RFU OASL (11726364_x_at) / Fold change /veh OASL (11726364_x_at) / RFU SOX15 (11748057_x_at) / Fold change /veh SOX15 (11748057_x_at) / RFU CD79A (11719716_a_at) / Fold change /veh CD79A (11719716_a_at) / RFU HIST1H1D (11736915_at) / Fold change /veh HIST1H1D (11736915_at) / RFU CASKIN2 (11723855_a_at) / Fold change /veh CASKIN2 (11723855_a_at) / RFU LOC730098 (11760151_x_at) / Fold change /veh LOC730098 (11760151_x_at) / RFU OR4N2 (11742367_at) / Fold change /veh OR4N2 (11742367_at) / RFU PRRT2 (11749266_a_at) / Fold change /veh PRRT2 (11749266_a_at) / RFU SNX32 (11753110_a_at) / Fold change /veh SNX32 (11753110_a_at) / RFU CDHR5 (11726645_a_at) / Fold change /veh CDHR5 (11726645_a_at) / RFU RCAN1 (11760418_a_at) / Fold change /veh RCAN1 (11760418_a_at) / RFU FAM167A (11723789_a_at) / Fold change /veh FAM167A (11723789_a_at) / RFU FAM26E (11764081_at) / Fold change /veh FAM26E (11764081_at) / RFU ISYNA1 (11749810_s_at) / Fold change /veh ISYNA1 (11749810_s_at) / RFU ACY1 (11761880_at) / Fold change /veh ACY1 (11761880_at) / RFU 11764098_at / Fold change /veh 11764098_at / RFU SAMD14 (11745864_x_at) / Fold change /veh SAMD14 (11745864_x_at) / RFU NPB (11741838_a_at) / Fold change /veh NPB (11741838_a_at) / RFU TMPRSS6 (11731388_a_at) / Fold change /veh TMPRSS6 (11731388_a_at) / RFU KRTAP10-2 (11738614_at) / Fold change /veh KRTAP10-2 (11738614_at) / RFU ARHGAP8 /// PRR5-ARHGAP8 (11727945_x_at) / Fold change /veh ARHGAP8 /// PRR5-ARHGAP8 (11727945_x_at) / RFU KRTAP5-7 /// NADSYN1 (11734609_at) / Fold change /veh KRTAP5-7 /// NADSYN1 (11734609_at) / RFU RASL12 (11751679_a_at) / Fold change /veh RASL12 (11751679_a_at) / RFU CDKN2B (11736163_a_at) / Fold change /veh CDKN2B (11736163_a_at) / RFU PRF1 (11729649_at) / Fold change /veh PRF1 (11729649_at) / RFU, ZNF638 /// ZNF638-IT1 / Fold change vs veh, ZNF638 /// ZNF638-IT1 / RFU, PANK3 / Fold change vs veh, PANK3 / RFU, SH3YL1 / Fold change vs veh, SH3YL1 / RFU, ZEB2 / Fold change vs veh, ZEB2 / RFU, NRIP1 / Fold change vs veh, NRIP1 / RFU, PTTG1IP / Fold change vs veh, PTTG1IP / RFU, CAPN2 / Fold change vs veh, CAPN2 / RFU, MED14 / Fold change vs veh, MED14 / RFU, SNORA58 / Fold change vs veh, SNORA58 / RFU, C1orf63 / Fold change vs veh, C1orf63 / RFU, LRRFIP1 / Fold change vs veh, LRRFIP1 / RFU, NDUFAF7 / Fold change vs veh, NDUFAF7 / RFU, SLC12A2 / Fold change vs veh, SLC12A2 / RFU, IBTK / Fold change vs veh, IBTK / RFU, ESF1 / Fold change vs veh, ESF1 / Fold change vs veh, TMEM50B / RFU, TAOK1 / Fold change vs veh, TAOK1 / RFU, ACBD3 / Fold change vs veh, ACBD3 / RFU, TMA16 / Fold change vs veh, TMA16 / RFU, RWDD3 / Fold change vs veh, RWDD3 / RFU, BCAT1 / Fold change vs veh, BCAT1 / RFU, EDEM3 / Fold change vs veh, EDEM3 / RFU, TMEM33 / Fold change vs veh, TMEM33 / RFU, WDR75 / Fold change vs veh, WDR75 / RFU, AHCTF1 / Fold change vs veh, AHCTF1 / RFU, TFRC / Fold change vs veh, TFRC / RFU, ZDHHC17 / Fold change vs veh, ZDHHC17 / RFU, NOM1 / Fold change vs veh, NOM1 / RFU, ARL8B / Fold change vs veh, ARL8B / RFU, ZBTB11 / Fold change vs veh, ZBTB11 / RFU, TAMM41 / Fold change vs veh, TAMM41 / RFU, KIAA1704 /// LOC100996395 / Fold change vs veh, KIAA1704 /// LOC100996395 / RFU, ING1 / Fold change vs veh, ING1 / RFU, TRMT61B / Fold change vs veh, TRMT61B / RFU, FUBP3 / Fold change vs veh, FUBP3 / RFU, TP53 / Fold change vs veh, TP53 / RFU, TNKS2 / Fold change vs veh, TNKS2 / RFU, ZFP14 / Fold change vs veh, ZFP14 / RFU, ACTR2 / Fold change vs veh, ACTR2 / RFU, PPP3R1 / Fold change vs veh, PPP3R1 / RFU, PIK3R1 / Fold change vs veh, PIK3R1 / RFU, HNRNPA1 / Fold change vs veh, HNRNPA1 / RFU, RNF170 / Fold change vs veh, RNF170 / RFU, ZNF28 / Fold change vs veh, ZNF28 / RFU, RNGTT / Fold change vs veh, RNGTT / RFU, OGT / Fold change vs veh, OGT / RFU, BRD1 / Fold change vs veh, BRD1 / RFU, MARS / Fold change vs veh, MARS / RFU, ZNF655 / Fold change vs veh, ZNF655 / RFU, FAHD1 / Fold change vs veh, FAHD1 / RFU, BDP1 / Fold change vs veh, BDP1 / RFU, LRRCC1 / Fold change vs veh, LRRCC1 / RFU, ARID1A / Fold change vs veh, ARID1A / RFU, ZNF146 / Fold change vs veh, ZNF146 / RFU, ZNF330 / Fold change vs veh, ZNF330 / RFU, GPN3 / Fold change vs veh, GPN3 / RFU, C9orf123 / Fold change vs veh, C9orf123 / RFU, N4BP2L2 / Fold change vs veh, N4BP2L2 / RFU, ARFIP1 / Fold change vs veh, ARFIP1 / RFU, FAM179B / Fold change vs veh, FAM179B / RFU, BCL10 / Fold change vs veh, BCL10 / RFU, UHRF1BP1L / Fold change vs veh, UHRF1BP1L / RFU, BET1 / Fold change vs veh, BET1 / RFU, CNOT2 / Fold change vs veh, CNOT2 / RFU, ZNF268 / Fold change vs veh, ZNF268 / Fold change vs veh, ZNF507 / RFU, DGCR2 / Fold change vs veh, DGCR2 / RFU, WDSUB1 / Fold change vs veh, WDSUB1 / Fold change vs veh, HSP90B1 /// MIR3652 / RFU, ADSS / Fold change vs veh, ADSS / RFU, GK / Fold change vs veh, GK / RFU, ZNF148 / Fold change vs veh, ZNF148 / RFU, TAF9 / Fold change vs veh, TAF9 / RFU, SLC1A5 / Fold change vs veh, SLC1A5 / RFU, SLMO2 / Fold change vs veh, SLMO2 / RFU, ABCC4 / Fold change vs veh, ABCC4 / RFU, LOC101060439 /// RAP1B / Fold change vs veh, LOC101060439 /// RAP1B / RFU, RFX7 / Fold change vs veh, RFX7 / RFU, GTPBP10 / Fold change vs veh, GTPBP10 / RFU, CNEP1R1 / Fold change vs veh, CNEP1R1 / RFU, BIVM-ERCC5 /// ERCC5 / Fold change vs veh, BIVM-ERCC5 /// ERCC5 / RFU, ILF3 / Fold change vs veh, ILF3 / RFU 11762660_at / Fold change /veh 11762660_at / RFU VCAN (11757783_s_at) / Fold change /veh VCAN (11757783_s_at) / RFU DDX43 (11728927_at) / Fold change /veh DDX43 (11728927_at) / RFU KRT8 (11758188_x_at) / Fold change /veh KRT8 (11758188_x_at) / RFU NKD1 (11759106_at) / Fold change /veh NKD1 (11759106_at) / RFU SRD5A1 (11742802_a_at) / Fold change /veh SRD5A1 (11742802_a_at) / RFU TPSAB1 /// TPSB2 (11721975_s_at) / Fold change /veh TPSAB1 /// TPSB2 (11721975_s_at) / RFU GSTM3 (11746129_a_at) / Fold change /veh GSTM3 (11746129_a_at) / RFU IL23R (11737362_x_at) / Fold change /veh IL23R (11737362_x_at) / RFU TMEM51 (11727254_a_at) / Fold change /veh TMEM51 (11727254_a_at) / RFU PIWIL2 (11732686_x_at) / Fold change /veh PIWIL2 (11732686_x_at) / RFU ORM1 (11744905_x_at) / Fold change /veh ORM1 (11744905_x_at) / RFU CCDC152 (11743942_at) / Fold change /veh CCDC152 (11743942_at) / RFU ECM1 (11717891_a_at) / Fold change /veh ECM1 (11717891_a_at) / RFU IL23R (11748794_a_at) / Fold change /veh IL23R (11748794_a_at) / RFU TNFAIP8L3 (11732012_x_at) / Fold change /veh TNFAIP8L3 (11732012_x_at) / RFU MBOAT4 (11741988_at) / Fold change /veh MBOAT4 (11741988_at) / RFU 11764193_at / Fold change /veh 11764193_at / RFU TMEM53 (11763286_at) / Fold change /veh TMEM53 (11763286_at) / RFU MAGEB2 (11727129_at) / Fold change /veh MAGEB2 (11727129_at) / RFU TMEM200A (11744735_a_at) / Fold change /veh TMEM200A (11744735_a_at) / RFU CCDC152 (11751479_a_at) / Fold change /veh CCDC152 (11751479_a_at) / RFU FAM211A (11726209_a_at) / Fold change /veh FAM211A (11726209_a_at) / RFU RGS16 (11746705_a_at) / Fold change /veh RGS16 (11746705_a_at) / RFU VCAN (11755009_s_at) / Fold change /veh VCAN (11755009_s_at) / RFU RHOB (11743442_s_at) / Fold change /veh RHOB (11743442_s_at) / RFU RGS16 (11720943_a_at) / Fold change /veh RGS16 (11720943_a_at) / RFU RGS16 (11720944_at) / Fold change /veh RGS16 (11720944_at) / RFU, VPS4B / Fold change vs veh, VPS4B / RFU, CREB1 / Fold change vs veh, CREB1 / RFU, DNAJC13 / Fold change vs veh, DNAJC13 / RFU, GNAQ / Fold change vs veh, GNAQ / RFU, CDK5R1 / Fold change vs veh, CDK5R1 / RFU, ZRANB3 / Fold change vs veh, ZRANB3 / RFU, CUL4A / Fold change vs veh, CUL4A / RFU, CCNY / Fold change vs veh, CCNY / RFU, UFL1 / Fold change vs veh, UFL1 / RFU, COG3 / Fold change vs veh, COG3 / RFU, DIAPH2 / Fold change vs veh, DIAPH2 / RFU, SKA2 / Fold change vs veh, SKA2 / RFU, AFF3 / Fold change vs veh, AFF3 / RFU, LMF1 / Fold change vs veh, LMF1 / RFU, IPO11 / Fold change vs veh, IPO11 / RFU, DFFB / Fold change vs veh, DFFB / RFU, FOXP1 / Fold change vs veh, FOXP1 / RFU, CARD8 / Fold change vs veh, CARD8 / RFU, STRN3 / Fold change vs veh, STRN3 / RFU, ADK / Fold change vs veh, ADK / RFU, RASSF2 / Fold change vs veh, RASSF2 / RFU, WIPF1 / Fold change vs veh, WIPF1 / RFU, LARP1B / Fold change vs veh, LARP1B / RFU, RASA1 / Fold change vs veh, RASA1 / RFU, RB1 / Fold change vs veh, RB1 / RFU, PPFIA1 / Fold change vs veh, PPFIA1 / RFU, MAT2A / Fold change vs veh, MAT2A / RFU, CCT5 / Fold change vs veh, CCT5 / RFU, WDR92 / Fold change vs veh, WDR92 / RFU, CUX1 / Fold change vs veh, CUX1 / RFU, TTC7A / Fold change vs veh, TTC7A / RFU, TMEM135 / Fold change vs veh, TMEM135 / RFU, DEPTOR / Fold change vs veh, DEPTOR / RFU, CPM / Fold change vs veh, CPM / RFU, DNAJB6 / Fold change vs veh, DNAJB6 / RFU, CACNA2D3 / Fold change vs veh, CACNA2D3 / RFU, DTX4 / Fold change vs veh, DTX4 / RFU, TFCP2 / Fold change vs veh, TFCP2 / RFU, GMCL1 /// GMCL1P1 / Fold change vs veh, GMCL1 /// GMCL1P1 / RFU, AEBP2 / Fold change vs veh, AEBP2 / RFU, SNHG1 /// SNORD22 /// SNORD25 /// SNORD26 /// SNORD27 /// SNORD28 /// SNORD29 /// SNORD31 / Fold change vs veh, SNHG1 /// SNORD22 /// SNORD25 /// SNORD26 /// SNORD27 /// SNORD28 /// SNORD29 /// SNORD31 / Fold change (Aza/veh), C12orf56 (ProbeSet 11735607_a_at) / Fold change (ACY-1035/veh), C12orf56 (ProbeSet 11735607_a_at) / Fold change (Aza/veh), FGFR1OP (ProbeSet 11751329_s_at) / Fold change (ACY-1035/veh), FGFR1OP (ProbeSet 11751329_s_at) / Fold change (Aza/veh), VPS36 (ProbeSet 11739960_a_at) / Fold change (ACY-1035/veh), VPS36 (ProbeSet 11739960_a_at) / RFU SYPL1 (11715823_x_at) / Fold change /veh SYPL1 (11715823_x_at) / RFU IGFBP7 (11715501_s_at) / Fold change /veh IGFBP7 (11715501_s_at) / RFU REEP3 (11722064_at) / Fold change /veh REEP3 (11722064_at) / RFU IGLL1 (11728026_x_at) / Fold change /veh IGLL1 (11728026_x_at): dose or concentration left out as unconfirmed
Settings: ProbeSet 11724526_at; LIST B

**Q.** With `Nc1ccc(-c2cccs2)cc1NC(=O)c1ccc2c(c1)cc(C1CC1)n2CCN1CCOCC1` [ACY-1035] as the compound, how does the “RFU, FAHD1” value read?
**A.** 149.86 RFU
